Reference: patent US9303045B2, “5-HT3 receptor antagonists” (Takeda Pharmaceutical Company Limited, priority 2013, dated 2016)
Where a name gives a salt, the structure may show the parent alone.

Legend:
[1] = test system: PCP-induced cognitive deficits; assay: Rodent novel object recognition (NOR) assay in phencyclidine-induced cognitive deficits modeling schizophrenia; assay type: in vivo, rat; parameters: key to time spent exploring novel object (TN) / time spent exploring familiar object (TF): exploration time in seconds; conditions: PCP-treated rats, 2 h ITI
From the text: Rodent Novel Object Recognition (NOR) Assay in Phencyclidine-Induced Cognitive Deficits Modeling Schizophrenia
The aim of this study was to investigate the ability of the compounds of the invention to improve subchronic PCP-induced impairment in cognition memory using the NOR task in the rat, a paradigm of relevance to cognition in schizophrenia. Adult male Sprague-Dawley rats (250-350 g; Harlan, USA) were used for the experiments Animal were acclimated to the facility for 7 days prior to experimentation. Seven groups of 14 animals per group were used for the experiment. One group of animals received vehicle (0.9% saline twice daily) and the remaining six groups received PCP (2.5 mg/kg, s.c. twice daily) for 7 days, followed by 5-days drug free. On the test day, the animals were allowed to acclimate to the testing room for 30 min prior to initiation of experiments. Experiments were carried out in a white plexiglass chamber, designated as experimental arena. The arena was placed in a dark experimental room that was illuminated by a halogen lamp, providing a dim light to the arena.
Animals were placed in the arena for a 5 minute period to freely explore the test chamber in the absence of objects (habituation). Animals were then returned to their home cage immediately upon completion of habituation for a 120 min period. (1R,3R,5S)-8-Methyl-8-azabicyclo[3.2.1]octan-3-yl 1-(2,2,2-trifluoroethyl)-1H-indole-3-carboxylate (0.1, 1, 10 mg/kg s.c.), or vehicle (veh, saline) was administered 120 min prior to T1 and galantamine (5 mg/kg, i.p.) was administered 30 min prior to T1. Animals were returned to the arena which contained two identical objects (plastic balls) placed at one end of the arena (acquisition, T1), and allowed to explore for a 5 min period. The time spent exploring the two objects was recorded Animals were once again returned to the home cage for a period of 120 min (ITI).
ITI was followed by the retention phase (T2) where one of the objects presented in the first trial was replaced by a novel object and animals were allowed to explore for an additional 5 min period. Again, the time spent exploring the two objects was recorded.
For the retention phase, the differences between the time spent exploring the familiar object and the novel object were examined. All sessions were recorded and scored blindly for the time exploring objects. Exploration is defined as touching the object or directing nose towards object at a distance less that 2 cm. A minimal exploration criterion was used such that only animals with exploration time of greater than 5 seconds per object were included.
Comparisons of all treatment groups were conducted using a one-way ANOVA followed by a Bonferroni's post hoc test for multiple comparisons.

[2] = biological target: 5HT3a receptor expressed in HEK-293T cells (Homo sapiens (Human), UniProt P46098); assay: Inhibition of Ca flux activity of 5HT3 in vitro assay; assay type: cell-based; conditions: calcium flux, 5HT 216 nM, approximate values
5HT3a receptor expressed in HEK-293T cells, sequence (P46098 24-478): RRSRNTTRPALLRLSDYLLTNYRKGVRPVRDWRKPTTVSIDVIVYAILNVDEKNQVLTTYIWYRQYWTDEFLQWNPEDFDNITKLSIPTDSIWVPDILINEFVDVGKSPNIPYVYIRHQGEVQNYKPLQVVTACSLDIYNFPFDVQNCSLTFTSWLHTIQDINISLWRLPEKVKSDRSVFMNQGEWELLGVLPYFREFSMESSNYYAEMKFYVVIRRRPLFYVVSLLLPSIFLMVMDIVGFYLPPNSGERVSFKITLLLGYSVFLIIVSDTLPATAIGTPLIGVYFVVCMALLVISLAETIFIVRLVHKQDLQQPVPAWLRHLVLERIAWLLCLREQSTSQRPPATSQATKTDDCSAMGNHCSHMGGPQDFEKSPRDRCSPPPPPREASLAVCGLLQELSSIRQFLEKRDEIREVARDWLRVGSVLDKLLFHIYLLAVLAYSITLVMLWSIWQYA
How it was run: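 HEK-293T cells transiently transfected with human 5HT3a, loaded 1 hour at 37° C with calcium dye in HBSS/20 mM HEPES, preincubated with compound (10^−7 to 10^−10, half-log) 10 minutes at room temperature.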

[3] = 0.1 mg/kg s.c. (bracket prints 0.01 mg/kg)
[4] = 1 mg/kg s.c. (bracket prints 0.1 mg/kg)

## CN1[C@@H]2CC[C@H]1C[C@@H](OC(=O)c1cn(CC(F)(F)F)c3ccccc13)C2
[1]; [3]
  time spent exploring familiar object (TF): 12.5±2.152
  time spent exploring novel object (TN): 22.9±3.65
[1]; 0.1 mg/kg s.c.
  discrimination between familiar and novel objects: did not demonstrate a statistically significant discrimination
[1]; [4]
  time spent exploring familiar object (TF): 12.7±1.027
  time spent exploring novel object (TN): 25.3±2.51
[1]; 1 mg/kg s.c.
  discrimination between familiar and novel objects: demonstrated a statistically significant discrimination
[1]; 10 mg/kg s.c.
  discrimination between familiar and novel objects: demonstrated a statistically significant discrimination
  time spent exploring familiar object (TF): 9.831±1.53
  time spent exploring novel object (TN): 22.8±2.48

## COc1ccc2c3c1O[C@H]1C[C@@H](O)C=C[C@@]31CCN(C)C2 [Galantamine, galantamine, reference compound]
[1]; galantamine 5 mg/kg i.p.
  discrimination between familiar and novel objects: statistically significant discrimination
  time spent exploring familiar object (TF): 11.19±1.376
  time spent exploring novel object (TN): 22.8±2.2

## CN(C(=O)c1cn(-c2cnsc2)c2ccccc12)[C@H]1C[C@H]2COC[C@@H](C1)N2 [Example 185, N-((1R,5S,7S)-3-oxa-9-azabicyclo[3.3.1]nonan-7-yl)-1-(isothiazol-4-yl)-N-methyl-1H-indole-3-carboxamide]
[2]
  IC50: 3.06 nM

## N#Cc1ccc(-n2cc(C(=O)O[C@H]3C[C@H]4COC[C@@H](C3)N4)c3ccccc32)cc1 [Example 180, (1R,5S,7s)-3-oxa-9-azabicyclo[3.3.1]nonan-7-yl 1-(4-cyanophenyl)-1H-indole-3-carboxylate, 2,2,2-trifluoroacetic acid salt]
[2]
  IC50: 5.91 nM

## CC(C)S(=O)(=O)n1cc(C(=O)NC2C[C@H]3COC[C@@H](C2)N3C)c2ccccc21 (stereo partly shown)
[2]
  IC50: 0.57 nM

## CN1[C@@H]2COC[C@H]1C[C@@H](NC(=O)c1cn(C(F)(F)C(F)F)c3ncc(F)cc13)C2 [Example 53, 5-fluoro-N-((1R,5S,7S)-9-methyl-3-oxa-9-azabicyclo[3.3.1]-nonan-7-yl)-1-(1,1,2,2-tetrafluoroethyl)-1H-pyrrolo[2,3-b]pyridine-3-carboxamide, 2,2,2-trifluoroacetate]
[2]
  IC50: 1.05 nM

## CN1C2COCC1CC(NC(=O)c1cn(-c3ccsn3)c3ccccc13)C2 [Example 153, 1-(isothiazol-3-yl)-N-((1R,5S,7s)-9-methyl-3-oxa-9-azabicyclo[3.3.1]nonan-7-yl)-1H-indole-3-carboxamide, 2,2,2-trifluoroacetic acid salt]
[2]
  IC50: 0.87 nM

## CN1[C@@H]2CC[C@H]1CC(NC(=O)c1cn(CC(F)F)c3ccc(F)cc13)C2 (stereo partly drawn) [Example 75, 1-(2,2-difluoroethyl)-5-fluoro-N-((1R,3R,5S)-8-methyl-8-azabicyclo[3.2.1]octan-3-yl)-1H-indole-3-carboxamide, 2,2,2-trifluoroacetate]
[2]
  IC50: 3.15 nM

## (1R,5S,7S)-9-methyl-3-oxa-9-azabicyclo[3.3.1]nonan-7-yl 1-(isothiazol-3-yl)-1H-indole-3-carboxylate, 2,2,2-trifluoroacetic acid salt [Example 34]
[2]
  IC50: 0.74 nM
